Measured values taken from patent US10525100B2, “ATF5 peptide variants and uses thereof” (Sapience Therapeutics, Inc., priority 2018, dated 2020).
Ends that are not written are not given here.

What was measured:
A375 cells = type: cell-based, human
Protocol: (§1) Additionally, adherent A375, MCF7, U251, DU145, U87, and A549 cells were set at a density of 3.5×10^3 cells/well in 200 μL of media on day −1. On day 0, media was removed and replenished with 150 μL of fresh media, and cells were treated with ATF5 peptide as described. Following a 48-hour incubation at 37° C., floating cells were collected, adherent cells were washed with Dulbecco's Phosphate Buffered Saline (DPBS), dissociated from the dish with 50 μL 2.5% trypsin at RT, and combined with floating cells. Cell viability was determined as described above for suspension cells or by MTT assay (MCF7 cells). Alternatively, cells were gently removed from the cell culture plate following trypsinization with 2.5% trypsin, and cell viability was quantified by flow cytometry using an Abcam Annexin V FITC apoptosis detection kit, as described above.

[1] = tested on: wide range of tumor cell types; test: Cytotoxic activity in various human cancer cell lines; type: cell-based; details: in words; FIGS. 6A-6E, 7A-7E
Protocol: ST-13 was further examined in various human cancer cell lines, as was a second retro-inverso variant, ST-14. Suspension cells (HL60, AML14, or SET2) were set at a density of 3.5×10^3 cells/well in 150 μL of RPMI+1.5% fetal bovine serum (FBS) in a tissue culture-treated 96 well dish. ATF5 peptide, reconstituted at a concentration of 10 mg/mL in 20 mM His, pH 7.5, was added to each well at a volume of 50 μL to a final concentration range of 0-80 μM. Cells were incubated with peptide for 48 hours at 37° C. Cell viability was quantified by flow cytometry using an Abcam Annexin V FITC apoptosis detection kit. […] Cells were analyzed by BD Accuri C6 Plus flow cytometer to detect Annexin V-FITC binding (Ex=488 nm; Em=530 nm) using FITC signal detector, and to detect PI staining using the phycoerythrin emission signal detector. Percentage of Annexin V^low and PI^low were quantified and presented as % Viability. EC50 values were calculated using GraphPad Prism v.7 XML. […] Cell viability was determined as described above for suspension cells or by MTT assay (MCF7 cells). Alternatively, cells were gently removed from the cell culture plate following trypsinization with 2.5% trypsin, and cell viability was quantified by flow cytometry using an Abcam Annexin V FITC apoptosis detection kit, as described above.

HL60 cells = test: HL60 cell viability assay (Annexin V FITC / PI flow cytometry); type: cell-based, human; details: for EC50: 48 h; for cytotoxic activity compared with another peptide: HL60 cell viability, FIGS. 2-5, in words
Protocol: HL60 PML suspension cells were set at a density of 3.5×10^3 cells/well in 150 μL of RPMI+1.5% fetal bovine serum (FBS) in a 96 well dish. ST-3, reconstituted at a concentration of 10 mg/mL in 20 mM His, pH 7.5, was added to each well at a volume of 50 μL to a final concentration range of 0-80 μM. Cells were incubated with ST-3 for 48 hours at 37° C. Cell viability was quantified by flow cytometry using an Abcam Annexin V FITC apoptosis detection kit. Briefly, cells were washed with PBS and resuspended in 1× assay buffer containing Annexin V FITC and propidium iodide (PI). Annexin V detects apoptotic cells, and PI stains dead cells. After staining, apoptotic cells show green fluorescence, dead cells show red and green fluorescence, and live cells show little or no fluorescence. Cells were selected for analysis based on forward scatter (FSC) vs. side scatter (SSC), and analyzed by BD Accuri C6 Plus flow cytometer to detect Annexin V-FITC binding (Ex=488 nm; Em=530 nm) using FITC signal detector and PI staining by the phycoerythrin emission signal detector. Percentage of Annexin V^low and PI^low were quantified and presented as % Viability.
Lyophilized ST-3 or ST-3 with glycine (ST-4) or alanine (ST-5) substituted for cysteine at amino acid position 21 was freshly reconstituted in histidine buffer to a stock solution of 5 mg/mL and added to cells at a final concentration range of 0-40 μM. Cells were incubated with ATF5 peptide for 48 hours prior to quantification of cell viability.
(§2) ST-13 was further examined in various human cancer cell lines, as was a second retro-inverso variant, ST-14. Suspension cells (HL60, AML14, or SET2) were set at a density of 3.5×10^3 cells/well in 150 μL of RPMI+1.5% fetal bovine serum (FBS) in a tissue culture-treated 96 well dish. ATF5 peptide, reconstituted at a concentration of 10 mg/mL in 20 mM His, pH 7.5, was added to each well at a volume of 50 μL to a final concentration range of 0-80 μM. Cells were incubated with peptide for 48 hours at 37° C. Cell viability was quantified by flow cytometry using an Abcam Annexin V FITC apoptosis detection kit. Briefly, cells were washed with PBS and resuspended in 1× assay buffer containing Annexin V FITC and propidium iodide (PI). Cells were analyzed by BD Accuri C6 Plus flow cytometer to detect Annexin V-FITC binding (Ex=488 nm; Em=530 nm) using FITC signal detector, and to detect PI staining using the phycoerythrin emission signal detector. Percentage of Annexin V^low and PI^low were quantified and presented as % Viability. EC50 values were calculated using GraphPad Prism v.7 XML.

MCF7 cells = type: cell-based, human
Protocol: as §1

SET2 cells = type: cell-based, human
Protocol: as §2

AML14 cells = type: cell-based, human
Protocol: as §2

Row | Compound | EC50 (HL60 cells) [µM] | cytotoxic activity compared with another peptide (HL60 cells) | further results
1 | CC[C@@H](C)[C@@H](NC(=O)[C@@H](CCCCN)NC(=O)[C@H](NC(=O)[C@@H](Cc1c[nH]c2ccccc12)NC(=O)[C@@H](Cc1ccccc1)NC(=O)[C@@H](CCC(N)=O)NC(=O)[C@@H](CC(N)=O)NC(=O)[C@@H](CCCNC(=N)N)NC(=O)[C@@H](CCCNC(=N)N)NC(=O)[C@@H](CCSC)NC(=O)[C@@H](CCCCN)NC(=O)[C@@H](Cc1c[nH]c2ccccc12)NC(=O)[C@@H](CCCCN)NC(=O)[C@@H](CCCCN)NC(=O)[C@@H](CC(C)C)NC(=O)[C@@H](CCC(=O)O)NC(=O)CNC(=O)[C@@H](CCCNC(=N)N)NC(=O)[C@@H](C)NC(=O)[C@@H](CCC(N)=O)NC(=O)CNC(=O)[C@@H](CC(C)C)NC(=O)[C@@H](CCCNC(=N)N)NC(=O)[C@@H](C)NC(=O)[C@@H](CCC(=O)O)NC(=O)[C@@H](CC(C)C)NC(=O)[C@@H](CCCNC(=N)N)NC(=O)[C@@H](CCC(=O)O)NC(=O)[C@@H](CC(C)C)NC(=O)[C@@H](CCC(=O)O)NC(=O)[C@@H](CCC(=O)O)NC(=O)[C@@H](CCCNC(=N)N)NC(=O)[C@@H](C)NC(=O)[C@@H](CCC(=O)O)NC(=O)[C@@H](C)NC(=O)[C@H](N)C(C)C)[C@H](C)CC)C(=O)N[C@H](CCC(N)=O)C(=O)N[C@H](CCCNC(=N)N)C(=O)O [ST-13] | 4.8 | – | EC50 (A375 cells): 1.4 µM; cytotoxic activity in tumor cell types [1]: significant cytotoxic activity
2 | RQIKIWFQNRRMKWKKLEGEAQGLEARNRELKERAESV [ST-5] | ~38 | attenuated but not ablated | –
3 | RQIKIWFQNRRMKWKKLEGECQGLEARNRELKERAEAV [ST-6] | 11.2 | comparable activity to ST-3 | –
4 | RQIKIWFQNRRMKWKKLEGECQGLEARNRELKERAESV [ST-3, reference compound] | – | – | EC50 (MCF7 cells): 52.9 µM; EC50 (A375 cells): 21.8 µM; EC50 (SET2 cells): 98.2 µM; EC50 (AML14 cells): 29.6 µM
5 | RQIKIWFQNRRMKWKKLEGEGQGLEARNRELKERAESV [ST-4] | ~35 | attenuated but not ablated | –
6 | RQIKIWFQNRRMKWKKLEGRAQGLRAELRELEERAEAV [ST-11] | 4.2 | improved cytotoxic activity over ST-3 | –
7 | RQIKIWFQNRRMKWKKLEGRCQGLRAELRELEERAEAV [ST-10] | 2.2 | comparable to that of ST-9 | –
8 | RQIKIWFQNRRMKWKKLEGRCQGLRAENRELEERAESV [ST-9] | 2 | significantly increased over that of ST-3 | –
